The nature of data set [1]: Reconstitution of lyophilized formulation in sterile water for injection. The note with it: lyo cakes of 3 vials combined, reconstituted with 1 mL sterile water for injection. It is filed as physicochemical. The protocol:
(§1) A self-assembling peptide having the sequence RADARADARADARADA (RADA4; SEQ. ID. NO: 1) acetate salt was reconstituted in sterile water to 3%. The material was stored at […] in a cooler with cold pack over it until brought to the study facility. Lyo cakes of 3 vials were crushed using a spatula and then combined in 1 vial. The combined content was reconstituted with 1 mL volume of sterile water for injection. The lyophilized formulation went in solution easily in 1-2 minutes and was vortexed for 30 seconds before use.

Data set [2] concerns second 4 mm diameter biopsy punch lesion in the right lobe of the liver. As to the kind of experiment: Rat liver biopsy punch model, hemostasis in the presence of anticoagulant (heparin). The data set is classed as in vivo, Sprague Dawley rats. The protocol:
(§2) To determine whether hemostasis could be achieved in the presence of anticoagulant, heparin was then administered to the animal at a dose of 500 IU per kg body weight injected directly into the portal vein. Two minutes after heparin injection, a second 4 mm diameter biopsy punch lesion was made adjacent to the first lesion in the right lobe of the liver and 0.5 ml of a 3% aqueous RADA4 peptide solution was again added to the lesion.

Data set [3] concerns 4 mm diameter biopsy punch lesion of the liver's right lobe with brisk bleeding. As to the kind of experiment: Rat liver biopsy punch model, hemostasis. The data set is classed as in vivo, Sprague Dawley rats. Here is the method: as §1
(§3) Four female Sprague Dawley rats each weighing 300-320 g were anesthetized with a mixture of xylaxine/ketamine. When a suitable plane of anesthesia was reached, a ventral midline incision was made in the abdomen allowing for visualization and manipulation of the liver's right lobe. Further manipulation to expose the portal vein was performed to allow for withdrawal of 1 mL of blood for measurement of blood activated clotting time (ACT).
A wooden spatula was then placed behind the right lobe of the liver and a 4 mm diameter biopsy punch was used to remove a full thickness 4 mm diameter section of the liver resulting in a lesion with brisk bleeding.
Immediately, 0.5 mL of a 3% aqueous solution of pre-formulated RADA4 peptide reconstituted in sterile water was applied to the biopsy site using a 22½ gauge needle.

The test system of data set [4] is blood activated clotting time (ACT). As to the kind of experiment: Blood activated clotting time (ACT). The data set is classed as in vivo, Sprague Dawley rats. The note with it: 8 minutes following heparin injection (500 IU/kg, portal vein); baseline approximately 110 seconds. Here is the method:
as §3, §2

Regarding RADARADARADARADA [RADA4], the “time for lyophilized formulation to go in solution” value in data set [1] was 1 to 2 min. The “time until bleeding stopped” value in data set [2] (0.5 ml of 3% aqueous solution, lesion made two minutes after heparin 500 IU per kg into the portal vein) was at most 30 s. For the same substance, the “producing hemostasis (overall outcome)” value in data set [2] (3% aqueous solution, presence of clinically significant anticoagulation) is given as “successful”; in data set [3] (3% aqueous solution, absence of clinically significant anticoagulation) it was “successful”. Moreover, the “stability of hemostasis at later assessment” value in data set [2] (at 10 minutes, after heparin 500 IU per kg) is “stable”; in data set [3] (10 minutes following application, no anticoagulant), “stable without further bleeding”. Further, the “time until bleeding stopped completely” value in data set [3] (0.5 mL of 3% aqueous solution applied to 4 mm liver biopsy site, no anticoagulant) is at most 30 s.
For heparin, the ACT measurement entry in data set [4] is listed as “greater than 1,300 seconds”.

Source of the values: patent US9339476B2, “Implantable meshes for controlling the movement of fluids” (Arch Biosurgery, Inc., priority 2013, dated 2016).
